Results: ChEMBL document CHEMBL1135951, “Potential anxiolytic agents. Part 4: novel orally-active N(5)-substituted pyrido[1,2-a]benzimidazoles with high GABA-A receptor affinity” (Bioorg Med Chem Lett, 2002)

Legend:
[1] = species on record: Mus musculus; experiment: animal or person; details: ip
[2] = species on record: Rattus norvegicus; experiment: animal or person; details: po, read-out: MED
Description: Minimum effective dose required for anticonflict in rat after peroral administration of the compound

[3] = tested on: Rattus norvegicus; experiment: In vivo minimum effective dose required for potentiation of EtOH-induced sleep time in rat; type: functional; details: for minimal effective dose: Rattus norvegicus, read-out: MED
[4] = tested on: Mus musculus; experiment: In vivo effective dose required for inhibition of pentylenetetrazole (PTZ)-induced seizures in mice perorally; type: functional
[5] = species on record: Rattus norvegicus; experiment: animal or person; details: ip, read-out: MED
Description: Minimum effective dose required for anticonflict in rat after intraperitoneal administration of the compound

[6] = tested on: Rattus norvegicus; experiment: In vivo minimum effective dose required for anticonflict effect in rat perorally; type: functional; details: for minimal effective dose: Rattus norvegicus, po, read-out: MED
[7] = species on record: Mus musculus; experiment: Effective dose required for motor impairment in the horizontal screen in mouse perorally; type: functional
[8] = tested on: Mus musculus; experiment: Effective dose required for motor impairment in the horizontal screen in mouse intraperitoneally; type: functional
[9] = species on record: Mus musculus; experiment: animal or person; details: po
[10] = tested on: Rattus norvegicus; experiment: In vivo minimum effective dose required for anticonflict in rat intraperitoneally; type: functional; details: for minimal effective dose: Rattus norvegicus, ip, read-out: MED
[11] = tested on: Mus musculus; experiment: In vivo effective dose required for inhibition of pentylenetetrazole (PTZ)-induced seizures in mice intraperitoneally; type: functional
[12] = biological target: T1, GABA-A receptor; anion channel (Rattus norvegicus) (UniProt O09028+P15431+P18506+P18508+P19969+P20236+P23574+P23576+P28471+P28473+P30191+P62813+P63079+P63138+Q91ZM7+Q9ES14); experiment: Ratio of the binding in the absence and presence of GABA was determined.; type: protein-complex assay
[13] = species on record: Mus musculus; experiment: Effective dose required for inhibition of pentylenetetrazole (PTZ)-induced seizures in mice perorally; type: functional; details: po
[14] = species on record: Rattus norvegicus; experiment: Minimum effective dose required for anticonflict in rat perorally; type: functional; details: po, read-out: MED
[15] = biological target: GABA-A receptor; anion channel; experiment: In vitro affinity for BZD site on GABA-A receptor from rat cerebral cortex using radioligand [3H]flunitrazepam; type: tissue-based
[16] = biological target: T1, GABA-A receptor; anion channel (Rattus norvegicus); experiment: Minimum effective dose required for anticonflict in rat intraperitoneally; type: functional
[17] = tested on: Mus musculus; experiment: Effective dose required for inhibition of pentylenetetrazole (PTZ)-induced seizures in mice intraperitoneally; type: functional; details: ip
[18] = species on record: Mus musculus; experiment: Effective dose required for inhibition of pentylenetetrazole (PTZ)-induced seizures in mice perorally; value ranges from 3 to 30; type: functional; details: po
[19] = species on record: Mus musculus; experiment: Ratio of effective dose required for motor impairment in the horizontal screen to the inhibition of pentylenetetrazole (PTZ)-induced seizures in mice; type: functional
[20] = tested on: Mus musculus; experiment: In vivo effective dose required or inhibition of pentylenetetrazole (PTZ)-induced seizures in mice intraperitoneally; type: functional; details: ip
[21] = species on record: Rattus norvegicus; experiment: Ratio of minimum effective dose for potentiation of EtOH-induced sleep time to anticonflict effect in rat; type: functional
[22] = species on record: Rattus norvegicus; experiment: Minimum effective dose required for anticonflict in rat perorally; value ranges from 1 to 3; type: functional; details: po, read-out: MED
[23] = species on record: Mus musculus; experiment: Effective dose required for inhibition of pentylenetetrazole (PTZ)-induced seizures in mice perorally; value ranges from 0.3 to 3; type: functional; details: po
[24] = tested on: Mus musculus; experiment: In vivo effective dose required in vivo for inhibition of pentylenetetrazole (PTZ)-induced seizures in mice perorally; type: functional; details: po
[25] = Mus musculus, po, read-out: ED50
[26] = Mus musculus, ip, read-out: ED50

SMILES	GABA shift [12]	ED50 [13]	minimal effective dose [14]	IC50 [15]	MED [16]	ED50 [17]	also measured
CN1C(=O)CN=C(c2ccccc2)c2cc(Cl)ccc21 [DIAZEPAM]							ED50 [1]: 0.11 mg/kg; minimal effective dose [2]: > 10 mg/kg; minimal effective dose [3]: 5 mg/kg; ED50 ([4]; po): 0.5 mg/kg; minimal effective dose [5]: 5 mg/kg; minimal effective dose [6]: 5 mg/kg; ED50 [7, 25]: 6.3 mg/kg; ED50 [8, 26]: 0.1 mg/kg; ED50 [9]: 0.5 mg/kg; minimal effective dose [10]: 5 mg/kg; ED50 [11, 26]: 0.3 mg/kg
CCOCCN1C2=C(C(=O)Nc3ccccc3F)C(=O)CCN2c2ccc(F)cc21	3.2	0.3 mg/kg	1 mg/kg	0.5 nM	< 10 mg/kg	≤ 1 mg/kg	
O=C1CCN2C(=C1C(=O)Nc1ccccc1F)N(CCCO)c1cc(F)ccc12	1.8	0.5 mg/kg	10 mg/kg	1.1 nM	10 mg/kg	0.1 mg/kg	
CC(=O)OCCN1C2=C(C(=O)Nc3ccccc3F)C(=O)CCN2c2ccc(F)cc21	1.2	3 mg/kg	3 mg/kg	0.2 nM		≤ 1 mg/kg	
NCCN1C2=C(C(=O)Nc3ccccc3F)C(=O)CCN2c2ccc(F)cc21	2.7	10 mg/kg	10 mg/kg	5.1 nM	10 mg/kg	0.3 mg/kg	
CCOCN1C2=C(C(=O)Nc3ccccc3F)C(=O)CCN2c2cc(F)cc(F)c21	2.9		> 10 mg/kg	13.3 nM			
CN(C)/C=N/CCN1C2=C(C(=O)Nc3ccccc3F)C(=O)CCN2c2ccc(F)cc21	2.1	30 mg/kg	30 mg/kg	35 nM		≤ 1 mg/kg	
CCOCN1C2=C(C(=O)Nc3ccsc3)C(=O)CCN2c2ccc(F)cc21	1.7	< 0.2 mg/kg	0.3 mg/kg	1 nM		≤ 1 mg/kg	
CCOCN1C2=C(C(=O)Nc3cccs3)C(=O)CCN2c2ccc(F)cc21	2.1	0.2 mg/kg	3 mg/kg	1 nM		≤ 1 mg/kg	
COC(=O)OCCN1C2=C(C(=O)Nc3ccccc3F)C(=O)CCN2c2ccc(F)cc21	2.2	3 mg/kg	3 mg/kg	0.3 nM		≤ 1 mg/kg	
CCOCN1C2=C(C(=O)Nc3ccccc3F)C(=O)CCN2c2c1ccc(F)c2F	1.7	> 30 mg/kg	> 10 mg/kg	126 nM		1 mg/kg	
CCOCN1C2=C(C(=O)Nc3c(F)cccc3F)C(=O)CCN2c2ccc(F)cc21	1.6	3 mg/kg	> 10 mg/kg	0.6 nM	> 10 mg/kg	1 mg/kg	
CCOCN1C2=C(C(=O)Nc3ccccc3F)C(=O)CCN2c2ccc(Cl)cc21	2.8	2 mg/kg	> 10 mg/kg	0.5 nM		< 1 mg/kg	
O=C1CCN2C(=C1C(=O)Nc1ccccc1F)N(CCn1ccnc1)c1cc(F)ccc12	2.6	10 mg/kg	> 10 mg/kg	1.6 nM		1 mg/kg	
O=C1CCN2C(=C1C(=O)Nc1ccccc1F)N(CC1CCCO1)c1cc(F)ccc12 (stereo not drawn)	2.2	3 mg/kg	3 mg/kg	2.3 nM		≤ 1 mg/kg	
CCOCN1C2=C(C(=O)Nc3ccc(OC(=O)OC)cc3F)C(=O)CCN2c2ccc(F)cc21	3.2		1 mg/kg	4.3 nM		1 mg/kg	ED50 [18]: 3 mg/kg
COCCNCCN1C2=C(C(=O)Nc3ccccc3F)C(=O)CCN2c2ccc(F)cc21	1.8	1 mg/kg	10 mg/kg	7.4 nM	10 mg/kg	1 mg/kg	
CCOCN1C2=C(C(=O)Nc3ccccc3F)C(=O)CCN2c2ccc(F)cc21	1.2	0.04 mg/kg	0.4 mg/kg	0.1 nM	10 mg/kg	0.01 mg/kg	minimal effective dose [3]: 0.3 mg/kg; ED50 ([4]; po): 0.04 mg/kg; minimal effective dose [6]: 0.4 mg/kg; Ratio [19]: 675; ED50 [7, 25]: 27 mg/kg; ED50 [8, 26]: 0.3 mg/kg; ED50 [20]: 0.01 mg/kg; Ratio [21]: 1; minimal effective dose [10]: 10 mg/kg

SMILES	GABA shift [12]	ED50 [13]	minimal effective dose [14]	IC50 [15]	MED [16]	ED50 [17]	also measured
CCOCN1C2=C(C(=O)Nc3sccc3Cl)C(=O)CCN2c2ccc(F)cc21	1.6	10 mg/kg	> 10 mg/kg	0.7 nM		≤ 1 mg/kg	
O=C1CCN2C(=C1C(=O)Nc1ccccc1F)N(CCN1CCOCC1)c1cc(F)ccc12	2.2	30 mg/kg		6.1 nM	> 10 mg/kg	1 mg/kg	
CCOCN1C2=C(C(=O)Nc3ccc(C)s3)C(=O)CCN2c2ccc(F)cc21	2.3	0.5 mg/kg	0.3 mg/kg	0.7 nM		≤ 1 mg/kg	
CN(C)CCN1C2=C(C(=O)Nc3ccccc3F)C(=O)CCN2c2ccc(F)cc21	2.7	≤ 3 mg/kg	3 mg/kg	49.9 nM	< 10 mg/kg	0.5 mg/kg	
CN(C)CCCN1C2=C(C(=O)Nc3ccccc3F)C(=O)CCN2c2ccc(F)cc21	1.4	30 mg/kg	> 10 mg/kg	3.3 nM	10 mg/kg	3 mg/kg	
CCOCN1C2=C(C(=O)Nc3ccc(O)cc3F)C(=O)CCN2c2ccc(F)cc21	2			1.4 nM	1 mg/kg		minimal effective dose [22]: 1 mg/kg; ED50 [23]: 0.3 mg/kg
O=C1CCN2C(=C1C(=O)Nc1ccccc1F)N(CCc1ccccn1)c1cc(F)ccc12	2	10 mg/kg	> 10 mg/kg	0.9 nM	10 mg/kg	0.3 mg/kg	
CCOCN1C2=C(C(=O)Nc3ccccc3F)C(=O)CCN2c2cc3ccccc3cc21	1.4	> 30 mg/kg	> 10 mg/kg	2.2 nM		< 1 mg/kg	
COCCOCN1C2=C(C(=O)Nc3ccccc3F)C(=O)CCN2c2ccc(F)cc21	2.2	0.1 mg/kg	3 mg/kg	0.8 nM	< 10 mg/kg	0.003 mg/kg	MED [3]: 3; ED50 [4]: 0.1; MED [6]: 3; Ratio [19]: 300; ED50 [7]: 30; ED50 [8]: 0.07; Ratio [21]: 1; MED [10]: <=10; ED50 [11]: 0.003
CCOCN1C2=C(C(=O)Nc3ccc(OC)cc3F)C(=O)CCN2c2ccc(F)cc21	2.2	0.3 mg/kg	0.03 mg/kg	0.4 nM	0.1 mg/kg		
O=C1CCN2C(=C1C(=O)Nc1ccccc1F)N(CCO)c1cc(F)ccc12	2.7	< 30 mg/kg	> 10 mg/kg	1.2 nM	10 mg/kg	≤ 1 mg/kg	
O=C(Nc1ccccc1F)C1=C(O)CCn2c1nc1cc(F)ccc12	1.8	> 30 mg/kg	> 30 mg/kg		10 mg/kg	≤ 1 mg/kg	
CCOCN1C2=C(C(=O)Nc3ccc(F)cc3F)C(=O)CCN2c2ccc(F)cc21	2	< 3 mg/kg	0.1 mg/kg	1.2 nM	0.1 mg/kg	≤ 1 mg/kg	ED50 [24]: < 3 mg/kg; minimal effective dose [3]: 0.1 mg/kg; minimal effective dose [6]: 0.1 mg/kg; Ratio [19]: 3; ED50 [7, 25]: 10 mg/kg; ED50 [8, 26]: < 1 mg/kg; Ratio [21]: 1; minimal effective dose [10]: 0.1 mg/kg; ED50 [11, 26]: < 1 mg/kg
CCOCN1C2=C(C(=O)Nc3ccccc3F)C(=O)CCN2c2ccccc21	2	3 mg/kg	10 mg/kg	151 nM		> 1 mg/kg	
CCOCN1C2=C(C(=O)Nc3ccccc3F)C(=O)CCN2c2ccc(F)c(F)c21	1.7	< 3 mg/kg	1 mg/kg	0.5 nM		< 1 mg/kg	
CCOCCCN1C2=C(C(=O)Nc3ccccc3F)C(=O)CCN2c2ccc(F)cc21	1.6	0.3 mg/kg	1 mg/kg	0.3 nM		≤ 1 mg/kg	
CN(C)c1ccc(CCN2C3=C(C(=O)Nc4ccccc4F)C(=O)CCN3c3ccc(F)cc32)cc1	1.3	< 30 mg/kg		8.5 nM	> 10 mg/kg	1 mg/kg	
N=C(N)NCCN1C2=C(C(=O)Nc3ccccc3F)C(=O)CCN2c2ccc(F)cc21	1.7	> 30 mg/kg	> 10 mg/kg	5.6 nM		> 1 mg/kg	
